Test results published in EP0908457B1, “3-(1,2-benzisothiazol- and isoxazol-5-Y1)-2,4(1H,3H)-pyrimidinedione or thione and 3-(1,2-benzisothiazol- and isoxazol-5-y1)-4(3H)-pyrimidinone or thione herbicidal agents” (BASF AKTIENGESELLSCHAFT, priority 1997, dated 1999).

Legend:
[1] = test system: Monochoria vaginalis, Presl.; assay: Preemergence weed control under flooded paddy conditions, MOOVA (Monochoria); format: in vivo; details: flooded paddy, rated three to four weeks after treatment; also: meaning of each grade not given here
[2] = test system: Oryza sativa, (L.) Tebonnet; assay: Rice tolerance to post-transplant applications under flooded paddy conditions (Example 188), ORYSAT (Rice, Tebonnet); details: rated three to four weeks after treatment
[3] = test system: Echinochloa oryzoides (Ard.) Fritsch.; assay: Preemergence weed control under flooded paddy conditions, ECHORC (Watergrass (Calif.)); format: in vivo; details: flooded paddy, rated three to four weeks after treatment; also: meaning of each grade not given here
[4] = test system: Monochoria vaginalis, Presl.; assay: Postemergence weed control under flooded paddy conditions, MOOVA (Monochoria); format: in vivo; details: rated three to four weeks after treatment
Cyperus iria [5] = assay: Preemergence weed control under flooded paddy conditions, CYPIR (Rice Flatsedge); format: in vivo; details: flooded paddy, rated three to four weeks after treatment; also: meaning of each grade not given here
Sagittaria pygmaea, L. [6] = assay: Preemergence weed control under flooded paddy conditions, SAGPY (Arrowhead (Pygmaea)); format: in vivo; details: flooded paddy, rated three to four weeks after treatment; also: meaning of each grade not given here
Sagittaria pygmaea, L. [7] = assay: Postemergence weed control under flooded paddy conditions, SAGPY (Arrowhead (Pygmaea)); format: in vivo; details: rated three to four weeks after treatment
[8] = test system: Cyperus serotinus, Rottb.; assay: Preemergence weed control under flooded paddy conditions, CYPSE (Flatsedge); format: in vivo; details: rated three to four weeks after treatment; also: meaning of each grade not given here
[9] = test system: Echinochloa oryzoides (Ard.) Fritsch.; assay: Postemergence weed control under flooded paddy conditions, ECHORC (Watergrass (Calif.)); format: in vivo; details: rated three to four weeks after treatment
[10] = test system: Oryza sativa, (L.) Tebonnet; assay: Rice tolerance to post-transplant applications under flooded paddy conditions (Example 187), ORYSAT (Rice, Tebonnet); details: rated three to four weeks after treatment; also: meaning of each grade not given here
[11] = test system: Cyperus serotinus, Rottb.; assay: Postemergence weed control under flooded paddy conditions, CYPSE (Flatsedge); format: in vivo; details: rated three to four weeks after treatment
Cyperus iria [12] = assay: Postemergence weed control under flooded paddy conditions, CYPIR (Rice Flatsedge); format: in vivo; details: rated three to four weeks after treatment
[13] = Rate 0.0320 kg/ha, preemergence
[14] = Rate 0.0620 kg/ha, preemergence
[15] = Rate 0.1250 kg/ha, preemergence
[16] = Rate 0.2500 kg/ha, preemergence
[17] = Rate 0.5000 kg/ha, preemergence
[18] = Rate 0.0320 kg/ha, preemergence weeds
[19] = Rate 0.0620 kg/ha, preemergence weeds
[20] = Rate 0.1250 kg/ha, preemergence weeds
[21] = Rate 0.2500 kg/ha, preemergence weeds

COC(=O)COc1ccc(C)cc1-c1noc2cc(F)c(-n3c(=O)cc(C(F)(F)F)n(C)c3=O)cc12 [Example 359, Acetic acid, {{2-{5-[3,6-dihydro-3-methyl-2,6-dioxo-4-(trifluoromethyl)-1(2H)-pyrimidinyl]-6-fluoro-1,2-benzisoxazol-3-yl}-p-tolyl}oxy}-, methyl ester]
herbicidal effect rating, MOOVA [1, 13]: 8.8
herbicidal effect rating, MOOVA [1, 14]: 9.0
herbicidal effect rating, MOOVA [1, 15]: 9.0
herbicidal effect rating, MOOVA [1, 16]: 9.0
herbicidal effect rating, MOOVA [1, 17]: 9.0
herbicidal effect rating, ORYSAT (rice tolerance) ([2]; Rate 0.0320 kg/ha): 2.0
herbicidal effect rating, ORYSAT (rice tolerance) ([2]; Rate 0.0620 kg/ha): 3.0
herbicidal effect rating, ORYSAT (rice tolerance) ([2]; Rate 0.1250 kg/ha): 4.0
herbicidal effect rating, ECHORC [3, 13]: 8.5
herbicidal effect rating, ECHORC [3, 14]: 9.0
herbicidal effect rating, ECHORC [3, 15]: 9.0
herbicidal effect rating, ECHORC [3, 16]: 9.0
herbicidal effect rating, ECHORC [3, 17]: 9.0
herbicidal effect rating, MOOVA ([4]; Rate 0.0320 kg/ha): 7.0
herbicidal effect rating, MOOVA ([4]; Rate 0.0620 kg/ha): 7.0
herbicidal effect rating, MOOVA ([4]; Rate 0.1250 kg/ha): 9.0
herbicidal effect rating, CYPIR (Cyperus iria [5]; [13]): 6.3
herbicidal effect rating, CYPIR (Cyperus iria [5]; [14]): 7.5
herbicidal effect rating, CYPIR (Cyperus iria [5]; [15]): 8.5
herbicidal effect rating, CYPIR (Cyperus iria [5]; [16]): 9.0
herbicidal effect rating, CYPIR (Cyperus iria [5]; [17]): 9.0
herbicidal effect rating, SAGPY (Sagittaria pygmaea, L. [6]; [13]): 0.0
herbicidal effect rating, SAGPY (Sagittaria pygmaea, L. [6]; [14]): 0.5
herbicidal effect rating, SAGPY (Sagittaria pygmaea, L. [6]; [15]): 1.8
herbicidal effect rating, SAGPY (Sagittaria pygmaea, L. [6]; [16]): 4.5
herbicidal effect rating, SAGPY (Sagittaria pygmaea, L. [6]; [17]): 5.0
herbicidal effect rating, SAGPY (Sagittaria pygmaea, L. [7]; Rate 0.0320 kg/ha): 0.0
herbicidal effect rating, SAGPY (Sagittaria pygmaea, L. [7]; Rate 0.0620 kg/ha): 0.0
herbicidal effect rating, SAGPY (Sagittaria pygmaea, L. [7]; Rate 0.1250 kg/ha): 0.0
herbicidal effect rating, CYPSE [8, 13]: 9.0
herbicidal effect rating, CYPSE [8, 14]: 6.0
herbicidal effect rating, CYPSE [8, 15]: 9.0
herbicidal effect rating, CYPSE [8, 16]: 9.0
herbicidal effect rating, ECHORC ([9]; Rate 0.0320 kg/ha): 2.0
herbicidal effect rating, ECHORC ([9]; Rate 0.0620 kg/ha): 6.0
herbicidal effect rating, ECHORC ([9]; Rate 0.1250 kg/ha): 6.0
herbicidal effect rating ORYSAT ([10]; Rate 0.0320 kg/ha): 6.5
herbicidal effect rating ORYSAT ([10]; Rate 0.0620 kg/ha): 7.3
herbicidal effect rating ORYSAT ([10]; Rate 0.1250 kg/ha): 8.8
herbicidal effect rating ORYSAT ([10]; Rate 0.2500 kg/ha): 9.0
herbicidal effect rating ORYSAT ([10]; Rate 0.5000 kg/ha): 9.0
herbicidal effect rating, CYPSE ([11]; Rate 0.0320 kg/ha): 0.0
herbicidal effect rating, CYPSE ([11]; Rate 0.0620 kg/ha): 0.0
herbicidal effect rating, CYPSE ([11]; Rate 0.1250 kg/ha): 0.0
herbicidal effect rating, CYPIR (Cyperus iria [12]; Rate 0.0320 kg/ha): 4.0
herbicidal effect rating, CYPIR (Cyperus iria [12]; Rate 0.0620 kg/ha): 7.0
herbicidal effect rating, CYPIR (Cyperus iria [12]; Rate 0.1250 kg/ha): 9.0

CC(C)Oc1cccc(-c2nsc3ccc(-n4c(=O)cc(C(F)(F)F)n(C)c4=O)cc23)c1 [Example 328, 2,4(1H,3H)-Pyrimidinedione, 3-[3-(m-isopropoxyphenyl)-1,2-benzisothiazol-5-yl]-1-methyl-6-(trifluoromethyl)-]
herbicidal effect rating, MOOVA [1, 18]: 9.0
herbicidal effect rating, MOOVA [1, 19]: 9.0
herbicidal effect rating, MOOVA [1, 20]: 9.0
herbicidal effect rating, MOOVA [1, 21]: 9.0
herbicidal effect rating, ORYSAT (rice tolerance) ([2]; Rate 0.0320 kg/ha): 2.0
herbicidal effect rating, ORYSAT (rice tolerance) ([2]; Rate 0.0620 kg/ha): 4.0
herbicidal effect rating, ORYSAT (rice tolerance) ([2]; Rate 0.1250 kg/ha): 4.0
herbicidal effect rating, ORYSAT (rice tolerance) ([2]; Rate 0.2500 kg/ha): 4.0
herbicidal effect rating, ECHORC [3, 18]: 9.0
herbicidal effect rating, ECHORC [3, 19]: 9.0
herbicidal effect rating, ECHORC [3, 20]: 9.0
herbicidal effect rating, ECHORC [3, 21]: 9.0
herbicidal effect rating, MOOVA ([4]; Rate 0.0320 kg/ha): 9.0
herbicidal effect rating, MOOVA ([4]; Rate 0.0620 kg/ha): 9.0
herbicidal effect rating, MOOVA ([4]; Rate 0.1250 kg/ha): 9.0
herbicidal effect rating, MOOVA ([4]; Rate 0.2500 kg/ha): 9.0
herbicidal effect rating, CYPIR (Cyperus iria [5]; [18]): 9.0
herbicidal effect rating, CYPIR (Cyperus iria [5]; [19]): 9.0
herbicidal effect rating, CYPIR (Cyperus iria [5]; [20]): 9.0
herbicidal effect rating, CYPIR (Cyperus iria [5]; [21]): 9.0
herbicidal effect rating, SAGPY (Sagittaria pygmaea, L. [6]; [18]): 2.5
herbicidal effect rating, SAGPY (Sagittaria pygmaea, L. [6]; [19]): 3.0
herbicidal effect rating, SAGPY (Sagittaria pygmaea, L. [6]; [20]): 4.5
herbicidal effect rating, SAGPY (Sagittaria pygmaea, L. [6]; [21]): 4.5
herbicidal effect rating, SAGPY (Sagittaria pygmaea, L. [7]; Rate 0.0320 kg/ha): 0.0
herbicidal effect rating, SAGPY (Sagittaria pygmaea, L. [7]; Rate 0.0620 kg/ha): 0.0
herbicidal effect rating, SAGPY (Sagittaria pygmaea, L. [7]; Rate 0.1250 kg/ha): 2.0
herbicidal effect rating, SAGPY (Sagittaria pygmaea, L. [7]; Rate 0.2500 kg/ha): 6.0
herbicidal effect rating, CYPSE [8, 18]: 6.0
herbicidal effect rating, CYPSE [8, 19]: 6.0
herbicidal effect rating, CYPSE [8, 20]: 7.5
herbicidal effect rating, CYPSE [8, 21]: 9.0
herbicidal effect rating, ECHORC ([9]; Rate 0.0320 kg/ha): 7.0
herbicidal effect rating, ECHORC ([9]; Rate 0.0620 kg/ha): 9.0
herbicidal effect rating, ECHORC ([9]; Rate 0.1250 kg/ha): 9.0
herbicidal effect rating, ECHORC ([9]; Rate 0.2500 kg/ha): 9.0
herbicidal effect rating ORYSAT ([10]; Rate 0.0320 kg/ha): 2.0
herbicidal effect rating ORYSAT ([10]; Rate 0.0620 kg/ha): 3.0
herbicidal effect rating ORYSAT ([10]; Rate 0.1250 kg/ha): 4.0
herbicidal effect rating ORYSAT ([10]; Rate 0.2500 kg/ha): 4.5
herbicidal effect rating, CYPSE ([11]; Rate 0.0320 kg/ha): 0.0
herbicidal effect rating, CYPSE ([11]; Rate 0.0620 kg/ha): 2.0
herbicidal effect rating, CYPSE ([11]; Rate 0.1250 kg/ha): 6.0
herbicidal effect rating, CYPSE ([11]; Rate 0.2500 kg/ha): 6.0
herbicidal effect rating, CYPIR (Cyperus iria [12]; Rate 0.0320 kg/ha): 9.0
herbicidal effect rating, CYPIR (Cyperus iria [12]; Rate 0.0620 kg/ha): 9.0
herbicidal effect rating, CYPIR (Cyperus iria [12]; Rate 0.1250 kg/ha): 9.0
herbicidal effect rating, CYPIR (Cyperus iria [12]; Rate 0.2500 kg/ha): 9.0
